Results: patent EP0877022A1, “Synthesis of the sulfonylpyrimidine derivatives with anticancer activity” (Herbos d.d., priority 1997, dated 1998)
Read-outs that look alike come from different tables or passages of the source.

Columns and labels:
Assay type in all cases: cell-based
[1] = tested on: human cervix carcinoma (HeLa); assay: Growth inhibitory effects on HeLa cells (MTT staining); conditions: concentration 10^-5 M, read-out: inhibition of cell growth
Protocol: (§1) Cell lines. Human tumor pancreatic carcinoma cells (MiaPaCa 2), laryngeal carcinoma (Hep 2), human cervical carcinoma (HeLa) and normal human fibroblasts (Hef 2) were grown as monolayers at 37 °C in a humidified atmosphere with 5% CO2 in DMEM supplemented with 10% fetal calf serum, 2 mM glutamine, 100 U/ml penicillin and […] streptomycin.
(§2) Cell Cytotoxicity. To the purpos of the experiments the cells ([…]; 2x10^4 cells/ml) were plated onto 96-microwell plates. After 24 hours, test compounds at different concentrations (10^-4-10^-8 M), were added to the cells. Three days later, cell viability was determined by […]. The control cells were grown under same conditions without addition of test compounds. […] This method depends on the conversion of a water-soluble tetrazolium salt (MTT) to a purple colored formazan precipitate. The reaction affected by dehydrogenase enzymes active only in living cells. Tests were carried out in 96-well microculture plates. 10^4 viable tumor cells per well at 4 h incubation time 20 µg MTT7100 µl total medium volume. Formazan crystals were dissolved in DMSO and the plates were immediately measured on a microculture plate reader at 540 nm.

[2] = tested on: human tumor pancreatic carcinoma (MiaPaCa 2); assay: Growth inhibitory effects on MiaPaCa 2 cells (MTT staining); conditions: MIA PaCa-2, concentration 10^-5 M, read-out: inhibition of cell growth
Protocol: as §1, §2

[3] = tested on: laryngeal carcinoma (Hep 2); assay: Growth inhibitory effects on Hep 2 cells (MTT staining); conditions: Homo sapiens, concentration 10^-5 M, read-out: inhibition of cell growth
Protocol: as §1, §2

[4] = tested on: normal human fibroblasts (Hef 2); assay: Growth inhibitory effects on normal Hef 2 fibroblasts (MTT staining); conditions: Fibroblast, Hef 2 normal cells, concentration 10^-5 M, read-out: inhibition of cell growth
Protocol: as §1, §2

| SMILES | inhibition at 10 µM [1] [%] | inhibition at 10 µM [2] [%] | inhibition at 10 µM ([3]; Hep 2) [%] | inhibition at 10 µM ([3]; HEp-2, Hep 2) [%] | inhibition at 10 µM [4] [%] |
| --- | --- | --- | --- | --- | --- |
| Cc1ccc(S(=O)(=O)n2cc(Br)c(=O)[nH]c2=O)cc1 [compound 2] | 85 | 80 | 20 | – | – |
| Cc1ccc(S(=O)(=O)n2ccc(N)nc2=O)cc1 [compound 4] | 85 | 65 | – | 20 | 20 |
